Data: PubChem BioAssay (NCI)
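How tested: cells in 96-well plates exposed to compound for 48 hours at five concentrations. GI50: concentration for 50% inhibition of growth. TGI marks complete inhibition of growth.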

What was measured:
Test in all cases: NCI tumour cell line growth inhibition, 48 h
[1] = test system: DMS 273 small cell lung
[2] = test system: DLD-1 colon
[3] = test system: LXFL 529 NSCLC
[4] = test system: M19-MEL melanoma
[5] = test system: KM12 colon
[6] = test system: SF-268 CNS
[7] = test system: XF 498 CNS
[8] = test system: SNB-78 CNS
[9] = test system: HOP-18 NSCLC
[10] = test system: BT-549 breast
[11] = test system: UACC-257 melanoma
[12] = test system: M14 melanoma
[13] = test system: UO-31 renal
[14] = test system: DMS 114 small cell lung
[15] = test system: KM20L2 colon
[16] = test system: RXF-631 renal

| Compound | TGI [1] [µM] | TGI [2] [µM] | TGI [3] [µM] | TGI [4] [µM] | TGI [5] [µM] | TGI [6] [µM] | TGI [7] [µM] | TGI [8] [µM] | TGI [9] [µM] | TGI [10] [µM] | TGI [11] [µM] | TGI [12] [µM] | TGI [13] [µM] | TGI [14] [µM] | TGI [15] [µM] | GI50 [6] [µM] | TGI [16] [µM] | GI50 [14] [µM] | GI50 [15] [µM] |
| --- | --- | --- | --- | --- | --- | --- | --- | --- | --- | --- | --- | --- | --- | --- | --- | --- | --- | --- | --- |
| C[N+](C)(C)CC(=O)N/N=C(\C(=O)NC1=C(Cl)C(=O)c2ccccc2C1=O)C(C#N)c1nc(-c2ccc([N+](=O)[O-])cc2)cs1 (centres undefined) | 33.7 | 29.5 | 21.4 | 2.2 | 63.7 | 38.4 | 21.1 | 48.2 | 18 | 15.1 | 9.11 | 8.65 | 31 | 9.62 | 42.5 | – | – | – | – |
| CC(=O)O[C@@]12CO[C@@H]1C[C@@H](O)[C@@]1(C)C(=O)[C@H](O)C3=C(C)[C@@H](OC(=O)[C@H](O)[C@@H](NC(=O)c4ccccc4)c4ccccc4)C[C@@](O)([C@@H](OC(=O)c4ccccc4)C12)C3(C)C (some centres undefined) | 13.5 | – | – | 70.9 | – | > 100 | – | – | – | > 100 | > 100 | > 100 | > 78.8 | 22.8 | 0.0985 | – | – | – | – |
| O=c1cc(-c2ccco2)[nH]c2cc3c(cc12)OCO3 | > 100 | > 100 | > 100 | > 100 | – | > 100 | 82.4 | – | – | – | > 100 | – | > 100 | > 100 | 66.8 | 42.1 | > 100 | 37.2 | 21.2 |
| C#CCN(N=O)C(=O)NCCCCC(NC(C)=O)C(=O)NCc1ccccc1 (centres undefined) | – | > 100 | > 100 | > 100 | > 100 | > 100 | > 100 | > 100 | > 100 | – | > 100 | > 100 | > 100 | > 100 | > 100 | – | – | – | – |
| CN(C)c1snc2c1c(=O)n(C)c(=O)n2C | > 100 | > 100 | > 100 | > 100 | – | > 100 | > 100 | – | > 100 | – | > 100 | – | > 100 | > 100 | > 100 | – | > 100 | – | – |
| COC(=O)C(C(=O)C(=O)Nc1cccc([N+](=O)[O-])c1)c1nc2ccc([N+](=O)[O-])cc2[nH]c1=O (centres undefined) | > 100 | > 100 | > 100 | > 100 | > 100 | > 100 | > 100 | > 100 | > 100 | – | > 100 | > 100 | > 100 | > 100 | > 100 | – | > 100 | – | – |
| CN=C(N)c1ccc(N=C(N)c2ccc(C(N)=Nc3ccc(C(N)=NC)cc3)cc2)cc1 | > 100 | – | > 100 | > 100 | > 100 | > 100 | – | – | – | – | > 100 | > 100 | > 100 | > 100 | – | – | > 100 | – | – |
| CCCCNC(=O)C1C2CCC(O2)C1C(=O)O (centres undefined) | > 100 | 49.4 | 34.6 | 41.4 | > 100 | 45.1 | 19.2 | > 100 | 90.9 | – | 45.7 | 29.5 | > 100 | 28.2 | 27.4 | – | > 100 | – | – |
| COc1ccc(/C(=C/n2ccnc2)C(O)c2ccc(OC)c(OC)c2)cc1OC (centres undefined) | > 100 | > 100 | – | > 100 | > 100 | > 100 | – | – | > 100 | – | > 100 | > 100 | > 100 | – | > 100 | – | – | – | – |
| COc1ccc(NC(=O)C(C)Oc2ccc(OCC3CCCCC3)cc2)cc1 (centres undefined) | > 100 | > 100 | > 100 | > 100 | > 100 | > 100 | > 100 | > 100 | – | – | > 100 | > 100 | > 100 | > 100 | – | – | – | – | – |
| C=CCN1/C(=C2\SC(=S)N(c3ccc(C)cc3)C2=O)Sc2c1nc[nH]c2=O | > 100 | > 100 | > 100 | > 100 | – | > 100 | > 100 | > 100 | – | – | > 100 | > 100 | > 100 | > 100 | > 100 | – | – | – | – |
| O=C1c2ccccc2C2C1C(c1ccccc1)C1(Cc3ccccc3C1=O)C2c1ccccc1 (centres undefined) | – | – | – | – | > 100 | > 100 | – | – | – | > 100 | > 100 | > 100 | > 100 | – | – | – | – | – | – |
| COc1cc(/C=C\c2nnc(/C=C\c3ccc(O)c(OC)c3)s2)ccc1O | – | – | – | – | 15.4 | 41.2 | – | – | – | 11.1 | > 30.7 | 9.58 | 15.3 | – | – | – | – | – | – |
| O=C(CCc1ccccc1)n1cccc1CO | – | – | – | – | > 100 | > 100 | – | – | – | > 100 | > 100 | > 100 | > 100 | – | – | – | – | – | – |
| CSC1=NNC(SC)=NN1 | – | – | – | – | 0.376 | 0.351 | – | – | – | 0.348 | 0.258 | 0.335 | 0.328 | – | – | – | – | – | – |
| COc1ccc(NC(C)=O)c(C(O)CCNC(C)=O)c1 (centres undefined) | – | – | – | – | > 100 | > 100 | – | – | – | > 100 | > 100 | > 100 | > 100 | – | – | – | – | – | – |
| CC(=O)OC[C@@]12Cc3ccc(C)c(O)c3[C@]1(C)[C@@H](OC(C)=O)[C@]1(O)[C@H]([C@@H](OC(=O)c3ccccc3)[C@@H](C)[C@H]1OC(C)=O)[C@H]2OC(C)=O | – | – | – | – | > 50 | > 50 | – | – | – | > 50 | > 50 | > 50 | > 50 | – | – | – | – | – | – |
| O=C1c2ccccc2C(=O)C1C(c1ccc(F)cc1)C1C(=O)c2ccccc2C1=O | > 100 | > 100 | > 100 | > 100 | > 100 | > 100 | > 100 | > 100 | > 100 | – | > 100 | > 100 | > 100 | > 100 | > 100 | – | > 100 | – | – |
| O=C(N/N=C/c1ccc([N+](=O)[O-])cc1)Nc1ccc(Br)cc1 | – | – | – | – | > 100 | > 100 | – | – | – | > 100 | > 100 | > 100 | > 100 | – | – | – | – | – | – |
